Experimental data: US20210101928A1 (Sage Therapeutics, Inc., priority 2017, published 2021)
Where two headings read alike, the source gives them in different places.

Biological target: GABAA receptor ([35S]-TBPS binding, rat brain cortical membranes)
Assay: Steroid inhibition of [35S]-TBPS binding
Details: in the presence of 5 mM GABA
Method: [^35S]-t-Butylbicyclophosphorothionate (TBPS) binding assays using rat brain cortical membranes in the presence of 5 mM GABA has been described (Gee et al, J. Pharmacol. Exp. Ther. 1987, 241, 346-353; Hawkinson et al, Mol. Pharmacol. 1994, 46, 977-985; Lewin, A. H et al., Mol. Pharmacol. 1989, 35, 189-194).
Briefly, cortices are rapidly removed following decapitation of carbon dioxide-anesthetized Sprague-Dawley rats (200-250 g). The cortices are homogenized in 10 volumes of ice-cold 0.32 M sucrose using a glass/teflon homogenizer and centrifuged at 1500×g for 10 min at 4° C. The resultant supernatants are centrifuged at 10,000×g for 20 min at 4° C. to obtain the P2 pellets. The P2 pellets are resuspended in 200 mM NaCl/50 mM Na—K phosphate pH 7.4 buffer and centrifuged at 10,000×g for 10 min at 4° C. This washing procedure is repeated twice and the pellets are resuspended in 10 volumes of buffer. Aliquots ([…]) of the membrane suspensions are incubated with 3 nM [^35S]-TBPS and […] aliquots of test drug dissolved in dimethyl sulfoxide (DMSO) (final 0.5%) in the presence of 5 mM GABA. The incubation is brought to a final volume of 1.0 mL with buffer. Nonspecific binding is determined in the presence of […] and ranged from 15 to 25%. Following a 90 min incubation at room temp, the assays are terminated by filtration through glass fiber filters (Schleicher and Schuell No. 32) using a cell harvester (Brandel) and rinsed three times with ice-cold buffer. Filter bound radioactivity is measured by liquid scintillation spectrometry. Non-linear curve fitting of the overall data for each drug averaged for each concentration is done using Prism (GraphPad). […] The concentration of test compound producing 50% inhibition (IC50) of specific binding and the maximal extent of inhibition (Imax) are determined for the individual experiments with the same model used for the overall data and then the means±SEM.s of the individual experiments are calculated.
Various compounds are or can be screened to determine their potential as modulators of [^35S]-TBPS binding in vitro. These assays are or can be performed in accordance with the above.

[1] = Table I-1, 3 nM [35S]-TBPS, read-out: TBPS binding IC50
[2] = Table II-2, 3 nM [35S]-TBPS, read-out: TBPS IC50
[3] = Table III-1 (biological data), 3 nM [35S]-TBPS, read-out: TBPS IC50

SMILES | IC50 [2] [µM] | further results
C[C@@]1(O)CC[C@]2(C)[C@H]3CC[C@]4(C)[C@@H](C(=O)Cn5ncc6ccncc65)CC[C@H]4[C@@H]3CC[C@]2(C)C1 [I-A7, 1-((3R,5R,8S,9S,10R,13S,14S,17S)-3-hydroxy-3,5,10,13-tetramethylhexadecahydro-1H-cyclopenta[a]phenanthren-17-yl)-2-(1H-pyrazolo[3,4-c]pyridin-1-yl)ethan-1-one] |  | IC50 [1]: 0.1 to 1 µM
CC[C@]12CC[C@@](C)(O)C[C@@H]1CC[C@H]1[C@@H]3CC[C@H](C(=O)CO)[C@@]3(C)CC[C@@H]12 [II-A11, 1-((3R,5S,8S,9S,10S,13S,14S,17S)-10-ethyl-3-hydroxy-3,13-dimethylhexadecahydro-1H-cyclopenta[a]phenanthren-17-yl)-2-hydroxyethan-1-one] | 0.01 to 0.1 | 
CCOC[C@@]1(O)CC[C@@]2(CC)[C@H](CC[C@H]3[C@@H]4CC[C@H](C(=O)N5CCCC[C@H]5c5ccc(F)cc5)[C@@]4(C)CC[C@@H]32)C1 [II-51, ((3R,5R,8S,9S,10S,13S,14S,17S)-3-(ethoxymethyl)-10-ethyl-3-hydroxy-13-methylhexadecahydro-1H-cyclopenta[a]phenanthren-17-yl)((S)-2-(4-fluorophenyl)piperidine-1-yl)methanone] | 0.01 to 0.1 | 
CC[C@]12CC[C@@](C)(O)C[C@H]1CC[C@H]1[C@@H]3CC[C@H](C(=O)Cn4nnc(C)n4)[C@@]3(C)CC[C@@H]12 [II-14, 1-((3R,5R,8S,9S,10S,13S,14S,17S)-10-ethyl-3-hydroxy-3,13-dimethylhexadecahydro-1H-cyclopenta[a]henanthren-17-yl)-2-(5-methyl-2H-tetrazol-2-yl)ethan-1-one] | < 0.01 | 
CC[C@]12CC[C@@](C)(O)C[C@H]1CC[C@H]1[C@@H]3CC[C@H](C(=O)Cn4nc5ccc(OC)cc5n4)[C@@]3(C)CC[C@@H]12 (single isomer, unassigned) [II-M2b] | < 0.01 | 
CC[C@]12CC[C@@](C)(O)C[C@@H]1CC[C@H]1[C@@H]3CC[C@H](C(=O)Cn4nccn4)[C@@]3(C)CC[C@@H]12 [II-A8a] | 0.01 to 0.1 | 
CCOC[C@@]1(O)CC[C@@]2(CC)[C@@H](CC[C@H]3[C@@H]4CC[C@H](C(=O)Nc5ccc(C#N)cc5C)[C@@]4(C)CC[C@@H]32)C1 [II-63] | 0.01 to 0.1 | 
CC(=O)[C@H]1CC[C@H]2[C@@H]3CC[C@]4(C)C[C@@](C)(O)CC[C@]4(C)[C@H]3CC[C@]12C [I-A5, 1-((3S,5R,8S,9S,10R,13S,14S,17S)-3-hydroxy-3,5,10,13-tetramethylhexadecahydro-1H-cyclopenta[a]phenanthren-17-yl)ethan-1-one] |  | IC50 [1]: 1 to 10 µM
Cc1nnn(CC(=O)[C@H]2CC[C@H]3[C@@H]4CC[C@]5(C)C[C@](C)(O)CC[C@]5(C)[C@H]4CC[C@]23C)n1 [I-A9, 1-((3R,5R,8S,9S,10R,13S,14S,17S)-3-hydroxy-3,5,10,13-tetramethylhexadecahydro-1H-cyclopenta[a]phenanthren-17-yl)-2-(5-methyl-2H-tetrazol-2-yl)ethan-1-one] |  | IC50 [1]: 0.1 to 1 µM
CC[C@@H]1CCCCN1C(=O)[C@H]1CC[C@H]2[C@@H]3CC[C@@H]4C[C@](C)(O)CC[C@]4(CC)[C@H]3CC[C@]12C [II-21a, ((3R,5R,8S,9S,10S,13S,14S,17S)-10-ethyl-3-hydroxy-3,13-dimethylhexadecahydro-1H-cyclopenta[a]phenanthren-17-yl)((R)-2-ethylpiperidin-1-yl)methanone] | 0.01 to 0.1 | 
CC[C@]12CC[C@H]3[C@@H](CC[C@@H]4C[C@@](O)(COC)CC[C@@H]43)[C@@H]1CC[C@@H]2C(=O)Cn1cc(C#N)cn1 [III-B17, 1-(2-((3R,5R,8R,9R,10S,13S,14S,17S)-13-ethyl-3-hydroxy-3-(methoxymethyl)hexadecahydro-1H-cyclopenta[a]phenanthren-17-yl)-2-oxoethyl)-1H-pyrazole-4-carbonitrile] |  | IC50 [3]: 0.01 to 0.1 µM
CCOC[C@@]1(O)CC[C@@]2(CC)[C@@H](CC[C@H]3[C@@H]4CC[C@H](C(=O)N5CCCC[C@@H]5C)[C@@]4(C)CC[C@@H]32)C1 [II-D11, ((3R,5S,8S,9S,10S,13S,14S,17S)-3-(ethoxymethyl)-10-ethyl-3-hydroxy-13-methylhexadecahydro-1H-cyclopenta[a]phenanthren-17-yl)((S)-2-methylpiperidin-1-yl)methanone] | 0.1 to 1 | 
CCOC[C@@]1(O)CC[C@@]2(CC)[C@@H](CC[C@H]3[C@@H]4CC[C@H](C(C)=O)[C@@]4(C)CC[C@@H]32)C1 [II-D9] | 0.01 to 0.1 | 
C[C@@]1(O)CC[C@]2(C)[C@H]3CC[C@]4(C)[C@@H](C(=O)Cn5cc6ccncc6n5)CC[C@H]4[C@@H]3CC[C@]2(C)C1 [I-A6, 1-((3R,5R,8S,9S,10R,13S,14S,17S)-3-hydroxy-3,5,10,13-tetramethylhexadecahydro-1H-cyclopenta[a]phenanthren-17-yl)-2-(2H-pyrazolo[3,4-c]pyridin-2-yl)ethan-1-one] |  | IC50 [1]: 0.1 to 1 µM
CC[C@]12CC[C@@](C)(O)C[C@H]1CC[C@H]1[C@@H]3CC[C@H](C(=O)Cn4nnnc4C)[C@@]3(C)CC[C@@H]12 [II-14a, 1-((3R,5R,8S,9S,10S,13S,14S,17S)-10-ethyl-3-hydroxy-3,13-dimethylhexadecahydro-1H-cyclopenta[a]phenanthren-17-yl)-2-(5-methyl-1H-tetrazol-1-yl)ethan-1-one] | < 0.01 | 
C=C[C@]12CC[C@@](C)(O)C[C@@H]1CC[C@H]1[C@@H]3CC[C@H](C(C)=O)[C@@]3(C)CC[C@@H]12 [II-A4, 1((3R,5S,8S,9S,10R,13S,14S,17S)-3-hydroxy-3,13-dimethyl-10-vinylhexadecahydro-1H-cyclopenta[a]phenanthren-17-yl)ethan-1-one] | 0.01 to 0.1 | 
CC(=O)[C@H]1CC[C@H]2[C@@H]3CC[C@]4(C)C[C@](C)(O)CC[C@]4(C)[C@H]3CC[C@]12C [I-B6, 1-((3R,5R,8S,9S,10R,13S,14S,17S)-3-hydroxy-3,5,10,13-tetramethylhexadecahydro-1H-cyclopenta [a]phenanthren-17-yl)ethan-1-one] |  | IC50 [1]: 0.1 to 1 µM
CC[C@]12CC[C@@](C)(O)C[C@H]1CC[C@H]1[C@@H]3CC[C@H](C(=O)c4ccccc4C)[C@@]3(C)CC[C@@H]12 [II-G5, ((3R,5R,8S,9S,10S,13S,14S,17S)-10-ethyl-3-hydroxy-3,13-dimethylhexadecahydro-1H-cyclopenta [a]phenanthren-17-yl)(o-tolyl)methanone] | 0.01 to 0.1 | 
CCOC[C@@]1(O)CC[C@@]2(CC)[C@H](CC[C@H]3[C@@H]4CC[C@H](C(=O)Cn5ccc(C#N)n5)[C@@]4(C)CC[C@@H]32)C1 [II-79, 1-(2-((3R,5R,8S,9S,10S,13S,14S,17S)-3-(ethoxymethyl)-10-ethyl-3-hydroxy-13-methylhexadecahydro-1H-cyclopenta[a]phenanthren-17-yl)-2-oxoethyl)-1H-pyrazole-3-carbonitrile] | < 0.01 | 
CC[C@]12CC[C@H]3[C@@H](CC[C@@H]4C[C@](C)(O)CC[C@@]43C)[C@@H]1CC[C@@H]2C(=O)Cn1nnc(C)n1 [III-A33] |  | IC50 [3]: < 0.01 µM
CC[C@]12CC[C@@](C)(O)C[C@H]1CC[C@H]1[C@@H]3CC[C@H](C(=O)N4CC[C@@H](c5ccccc5)C4)[C@@]3(C)CC[C@@H]12 [II-1] | 0.01 to 0.1 | 
CC[C@]12CC[C@](O)(COC)C[C@@H]1CC[C@H]1[C@@H]3CC[C@H](C(=O)Cn4ccc(C#N)n4)[C@@]3(C)CC[C@@H]12 [II-E8, 1-(2-((3R,5S,8S,9S,10S,13S,14S,17S)-10-ethyl-3-hydroxy-3-(methoxymethyl)-13-methylhexadecahydro-1H-cyclopenta[a]phenanthren-17-yl)-2-oxoethyl)-1H-pyrazole-3-carbonitrile] | < 0.01 | 
CCOC[C@@]1(O)CC[C@@]2(CC)[C@H](CC[C@H]3[C@@H]4CC[C@H](C(=O)Nc5ccccc5)[C@@]4(C)CC[C@@H]32)C1 [II-46, (3R,5R,85,95,10S,13S,14S,17S)-3-(ethoxymethyl)-10-ethyl-3-hydroxy-13-methyl-N-phenylhexadecahydro-1H-cyclopenta[a]phenanthrene-17-carboxamide] | 0.01 to 0.1 | 
CC[C@]12CC[C@@](C)(O)C[C@@H]1CC[C@H]1[C@@H]3CC[C@H](C(=O)Cn4ccnn4)[C@@]3(C)CC[C@@H]12 [II-A8] | < 0.01 | 
